Counter-ions that a name gives are not always drawn. Like-named read-outs stand apart in the source and are kept apart here.
Target: T1, hNaV1.7 (Homo sapiens, UniProt Q15858)
T1 construct: expressed in transfected cells; host or cells: HEK293
Assay: QPatch NaV1.7 assay (whole-cell patch clamp, QPatch16x)
Format: cell-based
Settings: HEK293-hNaV1.7 cells
Outline: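 Automated whole-cell recordings in hNaV1.7-expressing HEK293 cells, holding at either −90 mV (mostly closed channels) or the half-inactivation voltage. Compounds applied cumulatively at four concentrations for 120 s each; peak current on 20 ms depolarisation to 0 mV fitted by Hill equation to yield pIC50.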

[1] = holding voltage V1/2 SSI (half of channels inactivated), read-out: QP Nav1.7 SSI vhalf pIC50 (converted)
[2] = holding voltage −90 mV (most channels closed), read-out: QP Nav1.7 −90 mV pIC50 (converted)

T1 sequence (Q15858 whole entry): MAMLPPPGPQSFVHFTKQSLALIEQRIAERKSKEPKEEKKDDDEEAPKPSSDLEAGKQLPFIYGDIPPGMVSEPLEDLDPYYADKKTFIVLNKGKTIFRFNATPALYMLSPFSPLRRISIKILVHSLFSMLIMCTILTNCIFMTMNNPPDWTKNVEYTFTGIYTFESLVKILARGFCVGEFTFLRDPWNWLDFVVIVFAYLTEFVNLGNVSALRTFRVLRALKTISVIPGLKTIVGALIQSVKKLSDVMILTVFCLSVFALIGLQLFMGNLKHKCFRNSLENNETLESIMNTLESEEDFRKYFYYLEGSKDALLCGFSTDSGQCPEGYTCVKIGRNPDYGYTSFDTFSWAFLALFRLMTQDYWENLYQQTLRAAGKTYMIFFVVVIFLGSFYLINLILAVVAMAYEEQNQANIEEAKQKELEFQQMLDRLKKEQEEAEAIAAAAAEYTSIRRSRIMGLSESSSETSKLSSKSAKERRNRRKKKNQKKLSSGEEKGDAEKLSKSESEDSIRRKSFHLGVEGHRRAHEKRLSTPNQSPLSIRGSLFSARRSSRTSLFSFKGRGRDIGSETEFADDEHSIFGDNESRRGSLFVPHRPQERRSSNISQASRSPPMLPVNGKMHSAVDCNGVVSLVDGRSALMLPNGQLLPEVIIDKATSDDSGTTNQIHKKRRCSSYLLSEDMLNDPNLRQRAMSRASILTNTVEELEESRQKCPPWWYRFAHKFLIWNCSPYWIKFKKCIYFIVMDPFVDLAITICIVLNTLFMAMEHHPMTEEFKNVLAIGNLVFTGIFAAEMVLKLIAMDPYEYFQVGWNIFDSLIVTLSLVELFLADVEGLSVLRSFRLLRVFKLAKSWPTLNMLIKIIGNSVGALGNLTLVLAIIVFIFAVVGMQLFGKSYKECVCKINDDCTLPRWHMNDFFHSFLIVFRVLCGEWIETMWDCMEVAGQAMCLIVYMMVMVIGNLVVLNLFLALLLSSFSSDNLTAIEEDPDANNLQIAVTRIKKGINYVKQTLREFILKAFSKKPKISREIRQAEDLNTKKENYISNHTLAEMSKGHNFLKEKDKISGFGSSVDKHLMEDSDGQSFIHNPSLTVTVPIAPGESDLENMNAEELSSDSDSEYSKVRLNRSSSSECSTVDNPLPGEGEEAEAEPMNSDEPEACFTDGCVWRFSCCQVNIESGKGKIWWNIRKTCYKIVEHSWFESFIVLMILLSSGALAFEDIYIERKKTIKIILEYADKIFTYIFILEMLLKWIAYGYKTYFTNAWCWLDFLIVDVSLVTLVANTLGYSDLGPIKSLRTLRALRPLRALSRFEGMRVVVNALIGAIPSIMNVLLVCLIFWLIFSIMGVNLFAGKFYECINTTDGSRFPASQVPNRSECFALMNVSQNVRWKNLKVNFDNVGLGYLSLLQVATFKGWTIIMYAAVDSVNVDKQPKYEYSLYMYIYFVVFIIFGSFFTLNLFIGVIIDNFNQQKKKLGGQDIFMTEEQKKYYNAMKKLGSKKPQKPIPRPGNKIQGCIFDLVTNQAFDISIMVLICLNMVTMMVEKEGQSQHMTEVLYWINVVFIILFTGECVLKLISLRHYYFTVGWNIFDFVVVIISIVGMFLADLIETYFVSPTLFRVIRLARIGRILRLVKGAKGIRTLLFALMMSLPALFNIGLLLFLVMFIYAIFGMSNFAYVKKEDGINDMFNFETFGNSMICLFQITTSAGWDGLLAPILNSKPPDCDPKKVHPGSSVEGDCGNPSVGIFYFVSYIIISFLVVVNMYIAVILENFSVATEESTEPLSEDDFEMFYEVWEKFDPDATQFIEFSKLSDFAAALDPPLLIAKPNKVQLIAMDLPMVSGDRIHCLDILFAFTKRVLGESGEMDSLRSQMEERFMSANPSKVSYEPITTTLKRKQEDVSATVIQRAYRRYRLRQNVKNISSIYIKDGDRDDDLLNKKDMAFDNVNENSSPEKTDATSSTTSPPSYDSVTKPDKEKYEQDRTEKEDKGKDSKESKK

Question: Which results are given for `CN1CC[C@]2(CC[C@H](c3cc(-c4ccc(C(F)(F)F)cc4)ccn3)N2)C1=O` [Example 55, (2R,5R)-7-Methyl-2-[4-(4-trifluoromethyl-phenyl)-pyridin-2-yl]-1,7-diaza-spiro[4.4]nonan-6-one hydrochloride]?
Answer: IC50 [1]: 20 µM; IC50 [2]: 100 µM

Question: For `CCOc1cc(-c2cc(C)nc([C@@H]3CC[C@@]4(CCN(C)C4=O)N3)c2)ccc1F` [Example 126, (2S,5S)-2-[4-(3-Ethoxy-4-fluoro-phenyl)-6-methyl-2-pyridyl]-7-methyl-1,7-diazaspiro[4.4]nonan-6-one hydrochloride], which IC50 [1] is on record?
Answer: 20 µM

Question: And the IC50 [2]?
Answer: 316 µM

Question: For `Cc1cnc([C@H]2CC[C@]3(CCN(C)C3=O)N2)cc1-c1ccc(C(F)(F)F)cc1` [Example 42, (2R,5R)-7-Methyl-2-[5-methyl-4-[4-(trifluoromethyl)phenyl]-2-pyridyl]-1,7-diazaspiro[4.4]nonan-6-one hydrochloride], which IC50 [1] is on record?
Answer: 2 µM

Question: What about the IC50 [2] of the same compound?
Answer: 25.1 µM

Question: For `CCn1ncc2cc(F)c(-c3ccnc([C@H]4CC[C@@]5(CCN(C)C5=O)N4)c3)cc21` [Example 258, (2R,5S)-2-[4-(1-Ethyl-5-fluoro-indazol-6-yl)-2-pyridyl]-7-methyl-1,7-diazaspiro[4.4]nonan-6-one hydrochloride], which IC50 [1] is on record?
Answer: 31.6 µM

Question: And the IC50 [2]?
Answer: 39800 µM

Question: For `Cc1cc(-c2ccc(C(F)(F)F)cc2)cc([C@H]2CC[C@@]3(CCNC3=O)N2)n1` [Example 94, (2R,5S)-2-[6-Methyl-4-[4-(trifluoromethyl)phenyl]-2-pyridyl]-1,7-diazaspiro[4.4]nonan-6-one hydrochloride], which IC50 [1] is on record?
Answer: 0.2 µM

Question: What about the IC50 [2] of the same compound?
Answer: 3.98 µM

Question: `CN1CC[C@]2(CC[C@@H](c3cc(-c4ccc(C(F)(F)F)cc4)ccn3)N2)C1=O` [Example 54, (2S,5R)-7-Methyl-2-[4-(4-trifluoromethyl-phenyl)-pyridin-2-yl]-1,7-diaza-spiro[4.4]nonan-6-one hydrochloride] was tested. Which IC50 [1] did it give?
Answer: 39.8 µM

Question: What about the IC50 [2] of the same compound?
Answer: 63.1 µM

Question: With `CCOc1ccc(F)c(-c2cc(C(C)C)nc([C@H]3CC[C@]4(CCN(C)C4=O)N3)c2)c1` [Example 234, (2R,5R)-2-[4-(5-Ethoxy-2-fluoro-phenyl)-6-isopropyl-2-pyridyl]-7-methyl-1,7-diazaspiro[4.4]nonan-6-one hydrochloride] as the compound, how does the IC50 [1] read?
Answer: 0.0501 µM

Question: What about the IC50 [2] of the same compound?
Answer: 1 µM

Question: How did the IC50 [1] turn out when `O=C1NCCC[C@@]12CC[C@H](c1cc(-c3ccc(F)cc3)ccn1)N2` [Example 111, (2R,5R)-2-[4-(4-Fluoro-phenyl)-pyridin-2-yl]-1,7-diaza-spiro[4.5]decan-6-one hydrochloride] was run?
Answer: 63.1 µM

Question: And the IC50 [2]?
Answer: 200 µM

Question: Which results are given for `CC(C)Oc1ccc(-c2ccnc([C@H]3CC[C@@]4(CCN(C)C4=O)N3)c2)cc1C#N` [Example 180, 2-Isopropoxy-5-[2-[(2R,5S)-7-methyl-6-oxo-1,7-diazaspiro[4.4]nonan-2-yl]-4-pyridyl]benzonitrile hydrochloride]?
Answer: IC50 [1]: 20 µM; IC50 [2]: 1000 µM

Question: How did the IC50 [1] turn out when `O=C1NCC[C@@]12CC[C@@H](c1cc(-c3ccc(C(F)(F)F)cc3F)ccn1)N2` [Example 38, (2S,5S)-2-[4-[2-Fluoro-4-(trifluoro-methyl)phenyl]-2-pyridyl]-1,7-diazaspiro[4.4]nonan-6-one hydrochloride] was run?
Answer: 7.94 µM

Question: What about the IC50 [2] of the same compound?
Answer: 63.1 µM

Question: What does the source list for `CN1CC[C@@]2(CC[C@@H](c3cc(-c4ccc(C(F)(F)F)cc4)ccn3)N2)C1=O` [Example 53, (2S,5S)-7-Methyl-2-[4-(4-trifluoromethyl-phenyl)-pyridin-2-yl]-1,7-diaza-spiro[4.4]nonan-6-one hydrochloride]?
Answer: IC50 [1]: 39.8 µM; IC50 [2]: 100 µM

Question: What does the source list for `CN1CC[C@@]2(CC[C@H](c3cc(-c4cccc(C(F)(F)F)c4)ccn3)N2)C1=O` [Example 75, (2R,5S)-7-Methyl-2-[4-[3-(trifluoromethyl)phenyl]-2-pyridyl]-1,7-diazaspiro[4.4]nonan-6-one hydrochloride]?
Answer: IC50 [1]: 20 µM; IC50 [2]: 126 µM

Question: How did the IC50 [1] turn out when `O=C1NCCC[C@]12CC[C@@H](c1cc(-c3ccc(F)cc3)ccn1)N2` [Example 113, (2S,5S)-2-[4-(4-Fluoro-phenyl)-pyridin-2-yl]-1,7-diaza-spiro[4.5]decan-6-one hydrochloride] was run?
Answer: 50.1 µM

Question: What about the IC50 [2] of the same compound?
Answer: 200 µM

Question: For `CN1CC[C@@]2(CC[C@H](c3cc(-c4ccc5c(c4)OC(F)(F)O5)ccn3)N2)C1=O` [Example 172, (2R,5S)-2-[4-(2,2-Difluoro-1,3-benzodioxol-5-yl)-2-pyridyl]-7-methyl-1,7-diazaspiro[4.4]nonan-6-one hydrochloride], which IC50 [1] is on record?
Answer: 31.6 µM

Question: What about the IC50 [2] of the same compound?
Answer: 316 µM

Question: `COc1cnc([C@@H]2CC[C@]3(CCN(C)C3=O)N2)cc1-c1ccc(C(F)(F)F)cc1` [Example 153, (2S,5R)-2-[5-Methoxy-4-[4-(trifluoromethyl)phenyl]-2-pyridyl]-7-methyl-1,7-diazaspiro[4.4]nonan-6-one hydrochloride] was tested. Which IC50 [1] did it give?
Answer: 12.6 µM

Question: And the IC50 [2]?
Answer: 158 µM

Question: Which IC50 [1] does the source give for `CCOc1cc(-c2ccnc([C@H]3CC[C@@]4(CCN(C)C4=O)N3)c2)c(F)cc1F` [Example 149, (2R,5S)-2-[4-(5-Ethoxy-2,4-difluoro-phenyl)-2-pyridyl]-7-methyl-1,7-diazaspiro[4.4]nonan-6-one hydrochloride] here?
Answer: 25.1 µM

Question: And the IC50 [2]?
Answer: 398 µM

Question: Which results are given for `CCOc1ccc(F)c(-c2cc(C)nc([C@@H]3CC[C@]4(CCN(C)C4=O)N3C)c2)c1` [Example 231, (2S,5R)-2-[4-(5-Ethoxy-2-fluoro-phenyl)-6-methyl-2-pyridyl]-1,7-dimethyl-1,7-diazaspiro-[4.4]nonan-6-one hydrochloride]?
Answer: IC50 [1]: 1 µM; IC50 [2]: 12.6 µM

Question: With `CCOc1ccc(F)c(-c2cc([C@H]3CC[C@]4(CCN(C)C4=O)N3)ncc2C)c1` [Example 140, (2R,5R)-2-[4-(5-Ethoxy-2-fluoro-phenyl)-5-methyl-2-pyridyl]-7-methyl-1,7-diazaspiro[4.4]nonan-6-one hydrochloride] as the compound, how does the IC50 [1] read?
Answer: 31.6 µM

Question: And the IC50 [2]?
Answer: 100 µM

Question: Which IC50 [1] does the source give for `Cc1cc(-c2cc(C(F)(F)F)ccc2C#N)cc([C@H]2CC[C@@]3(CCN(C)C3=O)N2)n1` [Example 23, 2-[2-Methyl-6-[(2R,5S)-7-methyl-6-oxo-1,7-diazaspiro[4.4]nonan-2-yl]-4-pyridyl]-4-(trifluoromethyl)benzonitrile hydrochloride] here?
Answer: 79.4 µM

Question: What about the IC50 [2] of the same compound?
Answer: 631 µM

Question: For `CC(C)COc1ccc(F)c(-c2ccnc([C@H]3CC[C@@]4(CCN(C)C4=O)N3)c2)c1` [Example 253, (2R,5S)-2-[4-(2-Fluoro-5-isobutoxy-phenyl)-2-pyridyl]-7-methyl-1,7-diazaspiro[4.4]nonan-6-one hydrochloride], which IC50 [1] is on record?
Answer: 0.0794 µM

Question: What about the IC50 [2] of the same compound?
Answer: 3.16 µM

Question: What does the source list for `CCOc1ccc(F)c(-c2ccnc([C@H]3CC[C@@]4(CC(C)(C)NC4=O)N3)c2)c1` [Example 217, (2R,5S)-2-[4-(5-Ethoxy-2-fluoro-phenyl)-2-pyridyl]-8,8-dimethyl-1,7-diazaspiro[4.4]nonan-6-one hydrochloride]?
Answer: IC50 [1]: 3.98 µM; IC50 [2]: 25.1 µM

Question: Which IC50 [1] does the source give for `CCOc1ccc(-c2cc(C)nc([C@@H]3CC[C@@]4(CCN(C)C4=O)N3)c2)cc1` [Example 88, (2S,5S)-2-[4-(4-Ethoxyphenyl)-6-methyl-2-pyridyl]-7-methyl-1,7-diazaspiro[4.4]nonan-6-one hydrochloride] here?
Answer: 31.6 µM

Question: What about the IC50 [2] of the same compound?
Answer: 316 µM

Question: For `CCOc1ccc(F)c(-c2cc(C)nc([C@@H]3CC[C@@]4(CCN(C)C4=O)N3)c2)c1` [Example 92, (2S,5S)-2-[4-(5-Ethoxy-2-fluoro-phenyl)-6-methyl-pyridin-2-yl]-7-methyl-1,7-diaza-spiro[4.4]nonan-6-one hydrochloride], which IC50 [1] is on record?
Answer: 2.51 µM

Question: What about the IC50 [2] of the same compound?
Answer: 39.8 µM
